According to patent US20200291100A1, “TREATMENT OF AGE-RELATED AND MITOCHONDRIAL DISEASES BY INHIBITION OF HIF-1 ALPHA FUNCTION” (President and Fellows of Harvard College, priority 2012, published 2020):
“Also recorded” adds a separate entry of the source.

Columns and labels:
C2C12 myoblasts = assay: DMOG treatment of C2C12 myoblasts, mtDNA content and ETC gene expression; type: cell-based, mouse; conditions: 16 h
Description: To test if the normal hypoxic response reproduces the effect of a SIRT1 deletion by causing genome asynchrony, C2C12 myoblasts were grown under hypoxic conditions (1% oxygen) or treated with dimethyloxaloylglycine (DMOG), a HIFα prolyl hydroxylase inhibitor that stabilizes HIF.
C2C12 cell line (ATCC) was cultured in low glucose Dulbecco's modified eagle medium (DMEM) (Invitrogen) supplemented with 10% FBS (Invitrogen) and a mix of antibiotic and antimycotic (Invitrogen). To inhibit SIRT1, cells were treated the vehicle (0.001% DMSO) or 10 μM EX-527 (Tocris) for 12 h. C2C12 myoblasts were infected with an empty or SIRT1 adenovirus as described before (Gerhart-Hines et al., 2007) and the media was replaced with fresh DMEM for additional 48 h, after that the cells were treated as described before. To test the effects of hypoxia and HIFα stabilization in genome asyncrony, C2C12 myoblasts were exposed to 1% oxygen for 16 h or treated with the vehicle (0.001% DMSO) or DMOG (Cayman) for the same period of time.
(§1) RNA from skeletal muscle tissue and C2C12 cells were extracted with RNeasy mini kit (Qiagen) according to the instructions and quantified using the NanoDrop 1000 spectrophotometer (Thermo Scientific). cDNA was synthesized with the iSCRIP cDNA synthesis kit (BioRad) using 600 ng of RNA. Quantitative RT-PCR reactions were performed using 1 μM of primers and LightCycler® 480 SYBR Green Master (Roche) on an LightCycler® 480 detection system (Roche). Calculations were performed by a comparative method (2-ΔCT) using 18S as an internal control. For mtDNA analysis, total DNA was extracted with DNeasy blood and tissue kit (Qiagen). mtDNA was amplified using primers specific for the mitochondrial cytochrome c oxidase subunit 2 (COX2) gene and normalized to genomic DNA by amplification of the ribosomal protein s18 (rps18) nuclear gene. Primers were designed using the IDT software (IDT) and the primer sequences can be found in Table 1.

[1] = test system: 6- and 22-month-old C57BL/6J mice; assay: NMN treatment of 6- and 22-month-old mice, skeletal muscle readouts; type: in vivo, mouse; conditions: NMN for one week
From the text: C57BL/6J mice of 6, 22, or 30 months of age were obtained from the National Institutes of Aging mouse aging colony. Additionally 22 months old caloric restricted mice were also obtained from the National Institutes of Aging mouse aging colony. EGLN1 KO, SIRT1 KO and SIRT1 OE mice were generated as previously described (Minamishima et al., 2008; Price et al., 2012). Mice were acclimated for at least one-week prior to sacrifice. 3, 6, 22 and 24-month-old mice were given interperitoneal (IP) injections of 500 mg NMN/kg body weight per day or the equivalent volume of PBS for 7 consecutive days at 5:00 pm and 7:00 am on day 8 and sacrificed 4 hr after last injection.
Cytochrome c oxidase activity was polarographically determined based on the 02 consumption upon cytochrome c oxidation, as previously described (Brautigan et al., 1978). The reaction was carried out at 25° C. in 1.3 mL of standard respiratory medium (as in mitochondrial respiration) supplemented with 2 μM rotenone, 10 μM oxidized cytochrome c, 0.3 mg TritonX-100. Following addition of the sample, the reaction was initiated by adding 5 mM ascorbate plus 0.25 mM tetramethylphenylene-diamine (TMPD).
ATP content was measured with a commercial kit according to the manufacturer's instructions (Roche).
as §1
Protein extracts from tissue or C2C12 cells were obtained by lysis in ice-cold lysis buffer (150 mM NaCl, 10 mM Tris HCl (pH 7.4), 1 mM EDTA, 1 mM EGTA, 1% Triton X-100, 0.5% NP-40) supplemented with a cocktail of protease and phosphatase inhibitors (Roche). Protein content was determined by the Bradford protein assay (Biorad), and 50 μg proteins were run on SDS-PAGE under reducing conditions. The separated proteins were then electrophoretically transferred to a polyvinylidene difluoride membrane (Perkin-Elmer). […] The immunostaining was detected using horseradish peroxidase-conjugated anti-rabbit or anti-mouse immunoglobulin for 1 h at room temperature.
NAD^+ from skeletal muscle was quantified with a commercially available kit (BioVision) according to the manufacturer's instructions and as described before (Gomes et al., 2012).
It was shown above that decreased levels of NAD^+ associated with age invokes a SIRT1 dependent pseudohypoxic response that disrupts mitochondrial homeostasis. Therefore, artificially boosting NAD^+ levels in old mice should restore mitochondrial homeostasis by reducing HIF-1α levels and restoring the expression of mitochondrial-encoded ETC components. Administration of NMN, a compound recently shown to increase NAD^+ levels in a variety of tissues (Yoshino et al., 2011), to 6- and 22-month-old C57BL/6J mice for one week increased levels of cellular NAD^+ in both the young and old mice were by 2-fold. The boost in the treated 22-month-old mice resembled the untreated 6-month-olds (FIG. 17A).

Structure (SMILES) | expression of mitochondrially-encoded ETC genes (C2C12 myoblasts) | expression of nuclear-encoded ETC components (C2C12 myoblasts) | mtDNA content (C2C12 myoblasts) | expression of mitochondrial-encoded genes ([1]; gastrocnemius, qPCR, old mice) | ATP levels ([1]; gastrocnemius, old mice) | COX activity ([1]; gastrocnemius, old mice) | HIF-1α protein (immunoblot) ([1]; gastrocnemius, old mice) | VHL protein (immunoblot) ([1]; gastrocnemius, old mice) | lactate levels in the skeletal muscle ([1]; old mice) | muscle wasting markers Atrogin-1 and MuRF1 ([1]; skeletal muscle of old mice, immunoblot) | expression of inflammation markers ([1]; skeletal muscle of old mice, qPCR) | phosphorylation of AKT and IRS-1 ([1]; soleus of old mice, immunoblot) | age-induced insulin resistance in the skeletal muscle ([1]; soleus of old mice) | levels of cellular NAD+ ([1]; young and old mice)
COC(=O)CNC(=O)C(=O)OC [DMOG, dimethyloxaloylglycine] | specific decline | but not the nuclear-encoded components | specific decline | – | – | – | – | – | – | – | – | – | – | –
NC(=O)c1ccc[n+]([C@@H]2O[C@H](COP(=O)([O-])O)[C@@H](O)[C@H]2O)c1 [NMN, nicotinamide mononucleotide] | – | – | – | restored | increase | increase | reversed; also recorded: reduced the level of HIF-1α | reversed the age-induced decline | suppressed the increase | completely reversed | completely reversed | increasing the phosphorylation | reverse age-induced insulin resistance | 2 fold
